In general, IC50 refers to the midpoint of a concentration-inhibition curve.

Structures can show the parent of a compound that is named as a salt.

Among the data in patent US20240109853A1 (Shanghai Yao Yuan Biotechnology Co., Ltd., priority 2020, published 2024) are IC50 values, retold here.

One assay addresses ALPK1 (Homo sapiens (Human), UniProt Q96QP1). Kind of assay: ALPK1 in vitro kinase assay (HTRF of TIFA phosphorylation). It is filed as biochemical. (In general: In TR-FRET formats the signal depends on donor and acceptor labels being close together.)
Assay [1] has as its system ALPK1-dependent NFκB reporter gene activation in HEK293 cells stably expressing an NF-kB reporter (G9 cells). Description: NFκB gene reporter alkaline phosphatase assay. In kind it is cell-based. The note with it: Homo sapiens, HEK293; read-out: NFkB assay IC50. The method in brief: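 Inhibition of ALPK1-driven NF-kB activation is measured as reduced reporter phosphatase activity after agonist challenge with D-glycero-D-manno-6-fluoro-heptose-1β-S-ADP. Cells receive serially diluted compound 30 min beforehand. Values are IC50s from non-linear regression.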

ALPK1, sequence (Q96QP1 whole entry): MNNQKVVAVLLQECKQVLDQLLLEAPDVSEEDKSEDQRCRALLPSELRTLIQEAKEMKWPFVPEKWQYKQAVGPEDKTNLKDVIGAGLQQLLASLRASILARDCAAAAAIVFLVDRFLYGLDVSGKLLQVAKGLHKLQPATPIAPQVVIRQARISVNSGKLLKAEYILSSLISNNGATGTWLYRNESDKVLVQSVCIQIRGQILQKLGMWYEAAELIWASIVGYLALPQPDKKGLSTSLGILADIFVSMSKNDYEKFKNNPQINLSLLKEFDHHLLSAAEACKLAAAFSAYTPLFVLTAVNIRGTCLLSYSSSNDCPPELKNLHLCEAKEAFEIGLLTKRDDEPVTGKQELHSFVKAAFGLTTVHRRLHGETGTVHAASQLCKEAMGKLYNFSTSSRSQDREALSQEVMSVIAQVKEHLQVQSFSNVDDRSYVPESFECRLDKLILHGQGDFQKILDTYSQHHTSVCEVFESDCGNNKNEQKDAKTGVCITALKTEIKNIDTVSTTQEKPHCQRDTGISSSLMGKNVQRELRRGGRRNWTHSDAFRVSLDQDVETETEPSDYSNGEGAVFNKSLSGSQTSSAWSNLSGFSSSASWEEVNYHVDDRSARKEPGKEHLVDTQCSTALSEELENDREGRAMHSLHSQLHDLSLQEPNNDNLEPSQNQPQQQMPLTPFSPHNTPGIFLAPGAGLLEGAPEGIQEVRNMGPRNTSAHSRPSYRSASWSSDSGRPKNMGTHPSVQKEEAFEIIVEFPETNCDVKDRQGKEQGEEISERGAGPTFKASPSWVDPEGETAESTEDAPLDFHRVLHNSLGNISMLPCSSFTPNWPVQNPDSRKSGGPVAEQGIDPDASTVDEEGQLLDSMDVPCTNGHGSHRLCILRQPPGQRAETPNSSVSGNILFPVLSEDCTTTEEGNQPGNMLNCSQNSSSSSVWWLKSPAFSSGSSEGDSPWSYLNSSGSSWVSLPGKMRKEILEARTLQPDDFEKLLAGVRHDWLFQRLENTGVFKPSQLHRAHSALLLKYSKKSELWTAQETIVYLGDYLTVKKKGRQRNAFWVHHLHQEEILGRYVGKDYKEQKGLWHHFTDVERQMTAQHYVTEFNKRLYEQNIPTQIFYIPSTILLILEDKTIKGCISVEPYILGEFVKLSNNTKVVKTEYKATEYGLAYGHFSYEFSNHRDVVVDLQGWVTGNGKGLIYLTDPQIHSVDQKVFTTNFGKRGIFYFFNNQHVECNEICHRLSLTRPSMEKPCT

On to `CC(C)(c1ccc(Br)cc1)c1csc(NC(=O)NCc2cnc(N3CCC(N)CC3)nc2)n1` [Example A099, 1-((2-(4-aminopiperidin-1-yl)pyrimidin-5-yl)methyl)-3-(4-(2-(4-bromophenyl)propan-2-yl)thiazol-2-yl)urea], for which the IC50 against ALPK1 stood at 13 nM; in assay [1], 450 nM.
As to `CN1CCN(Cc2c(F)cc(CNC(=O)Nc3nc(C(C)(C)c4ccc(Br)cc4)cs3)cc2F)CC1` [Example A117, 1-(4-(2-(4-bromophenyl)propan-2-yl)thiazol-2-yl)-3-(3,5-difluoro-4-((4-methylpiperazin-1-yl)methyl)benzyl)urea], the IC50 at ALPK1 is 67 nM; in assay [1] it was 5030 nM.
With `COc1ccc(C(C)(C)c2csc(NC(=O)NCc3ccc(C(=O)N4CCC(N)C4)nc3)n2)cc1` (stereo not drawn) [Example A217, 1-((6-(3-aminopyrrolidine-1-carbonyl)pyridin-3-yl)methyl)-3-(4-(2-(4-methoxyphenyl)propan-2-yl)thiazol-2-yl)urea], the IC50 against ALPK1 came to 56 nM; in assay [1] it was 32600 nM.
The corresponding values for `CC(C)(c1ccc(Br)cc1)c1csc(NC(=O)NCc2ccc(NCCN)cc2)n1` [Example A205, 1-(4-((2-aminoethyl)amino)ben-zyl)-3-(4-(2-(4-bromophenyl)propan-2-yl)thiazol-2-yl)urea] are 59 nM and 1480 nM.
The corresponding values for `C#CC(C)(c1ccc(OC)cc1)c1csc(NC(=O)NCCO)n1` (stereo not drawn) [Example A168, 1-(2-hydroxyethyl)-3-(4-(2-(4-methoxyphenyl)but-3-yn-2-yl)thiazol-2-yl)urea] are 27 nM and 400 nM.
The like results for `CC(C)(c1ccc(Br)cc1)c1csc(NC(=O)NCc2ccc(N3CCNC(=O)C3)cc2)n1` [Example A195, 1-(4-(2-(4-bromophenyl)propan-2-yl)thiazol-2-yl)-3-(4-(3-oxopiperazin-1-yl)benzyl)urea] were, in that order, 132 nM and 9940 nM.
Turning to `CC(C)(c1ccc(Br)cc1)c1csc(NC(=O)NCCCN2CCOCC2)n1` [Example A127, 1-(4-(2-(4-bromophenyl)propan-2-yl)thiazol-2-yl)-3-(3-morpholinopropyl)urea], the half-inhibitory concentration (IC50) against ALPK1 was found to be 113 nM; in assay [1] it was 940 nM.
Regarding `CC(NC(=O)Nc1nc(C(C)(C)c2ccc(Br)cc2)cs1)c1ccc(CN2CCN(C)CC2)cc1` (stereo not drawn) [Example A118, 1-(4-(2-(4-bromophenyl)propan-2-yl)thiazol-2-yl)-3-(1-(4-((4-methylpiperazin-1-yl)methyl)phenyl)ethyl) urea], the results for the IC50 (on ALPK1; in assay [1]) were 227 nM and 4380 nM, respectively.
The corresponding values for `COc1ccc(C(C)(C)c2csc(NC(=O)NCCCS(N)(=O)=O)n2)cc1` [Example A138, 3-(3-(4-(2-(4-methoxyphenyl)propan-2-yl)thiazol-2-yl)ureido)propane-1-sulfonamide] are 97 nM and 2380 nM.
The corresponding values for `C#C[C@](C)(c1ccc(Br)cc1)c1csc(NC(=O)NCC(C)(C)O)n1` (stereo in doubt) [Example A305, 1-[4-[1-(4-bromophenyl)-1-methyl-prop-2-ynyl]thiazol-2-yl]-3-(2-hydroxy-2-methyl-propyl)urea] are 167 nM and 2690 nM.
The like results for `C#CC(C)(c1ccc(Cl)cc1)c1csc(NC(=O)NO)n1` (stereo not drawn) [Example A271, 1-(4-(2-(4-chlorophenyl)but-3-yn-2-yl)thiazol-2-yl)-3-hydroxyurea] were, in that order, 493 nM and 730 nM.
Take `C#CC(C)(c1ccc(Cl)cc1)c1csc(NC(=O)N2CCC(O)CC2)n1` (stereo not drawn) [Example A307, N-(4-(2-(4-chlorophenyl)but-3-yn-2-yl)thiazol-2-yl)-4-hydroxypiperidine-1-carboxamide]: the values for the IC50 (against ALPK1; in assay [1]) were 2060 nM and 3150 nM, respectively.
For the compound `CC(C)(c1ccc(Br)cc1)c1csc(NC(=O)NCCN)n1` [Example A210, 1-(2-aminoethyl)-3-(4-(2-(4-bromophenyl)propan-2-yl)thiazol-2-yl)urea], the results for the IC50 (against ALPK1; in assay [1]) were 95 nM and 4160 nM, respectively.
Regarding `COc1ccc(C(C)(C)c2csc(NC(=O)NCc3ccc(C(=O)NCCN)nc3)n2)cc1` [Example A203, N-(2-aminoethyl)-5-((3-(4-(2-(4-methoxyphenyl)propan-2-yl)thiazol-2-yl)ureido)methyl)picolin-amide], the IC50 at ALPK1 came out at 94 nM; in assay [1], 5700 nM.
`CC(C)(c1ccc(C2CC2)cc1)c1csc(NC(=O)NCc2ccc(N3CCNCC3)cc2)n1` [Example A025, 1-(4-(2-(4-cyclopropylphenyl)propan-2-yl)thiazol-2-yl)-3-(4-(piperazin-1-yl)benzyl)urea]: the IC50 amounted to 334 nM against ALPK1 and 8580 nM in assay [1].
On to `CC(C)(c1ccc(Br)cc1)c1csc(NC(=O)NCc2ccc(CN3CCNCC3)c(F)c2)n1` [Example A214, 1-(4-(2-(4-bromophenyl)propan-2-yl)thiazol-2-yl)-3-(3-fluoro-4-(piperazin-1-ylmethyl)benzyl)urea], for which the IC50 stood at 40 nM against ALPK1 and 1560 nM in assay [1].
The like results for `CC(C)(c1ccc(Br)cc1)c1csc(NC(=O)NCc2cnc(N3CCC(O)C3)nc2)n1` (stereo not drawn) [Example A079, 1-(4-(2-(4-bromophenyl)propan-2-yl)thiazol-2-yl)-3-((2-(3-hydroxypyrrolidin-1-yl)pyrimidin-5-yl)methyl)urea] were, in that order, 170 nM and 1680 nM.
As to `CN1CCC(NC(=O)C2CCC(CNC(=O)Nc3nc(C(C)(C)c4ccc(Br)cc4)cs3)CC2)CC1` (stereo not drawn) [Example A100, 4-((3-(4-(2-(4-bromophenyl)propan-2-yl)thiazol-2-yl)ureido)methyl)-N-(1-methylpiperidin-4-yl)cyclohexane-1-carboxamide], the values for the IC50 (against ALPK1; in assay [1]) were 72 nM and 1370 nM, respectively.
The corresponding values for `C#CC(C)(c1ccc(Cl)cc1)c1csc(NC(=O)NC2CCN(Cc3ccc(C)cc3)C2)n1` (stereo not drawn) [Example A309, 1-(4-(2-(4-chlorophenyl)but-3-yn-2-yl)thiazol-2-yl)-3-(1-(4-methylbenzyl)pyrrolidin-3-yl)urea] are 1410 nM and 4120 nM.
The like results for `COc1ncc(CNC(=O)Nc2nc(C(C)(C)c3ccc(Br)cc3)cs2)cn1` [Example A080, 1-(4-(2-(4-bromophenyl)propan-2-yl)thiazol-2-yl)-3-((2-methoxypyrimidin-5-yl)methyl)urea] were, in that order, 172 nM and 13300 nM.
Regarding `COCCCNC(=O)Nc1nc(C(C)(C)c2ccc(OC)cc2)cs1` [Example A111, 1-(4-(2-(4-methoxyphenyl)propan-2-yl)thiazol-2-yl)-3-(3-methoxypropyl)urea], the IC50 at ALPK1 came out at 127 nM; in assay [1], 1240 nM.
The like results for `C#C[C@@](C)(c1ccc(Cl)cc1)c1csc(NC(=O)NC[C@@H](O)CO)n1` [Example A303, 1-(4-(2-(4-chlorophenyl)but-3-yn-2-yl)thiazol-2-yl)-3-((R)-2,3-dihydroxypropyl)urea] were, in that order, 101 nM and 660 nM.
The corresponding values for `O=C(Nc1nc(C2(c3ccc(Br)cc3)CCCC2)cs1)N1CC(c2ccc(N3CCNCC3)c(F)c2)C1` [Example A236, N-(4-(1-(4-bromophenyl)cyclopent-yl)thiazol-2-yl)-3-(3-fluoro-4-(piperazin-1-yl)phenyl)azetidine-1-carboxamide] are 13 nM and 4500 nM.
As to `CC(C)(c1ccc(Br)cc1)c1csc(NC(=O)NCc2ccc(N3CCC(N)C3)nc2)n1` (stereo not drawn) [Example A189, 1-((6-(3-aminopyrrolidin-1-yl)pyridin-3-yl)methyl)-3-(4-(2-(4-bromophenyl)propan-2-yl)thiazol-2-yl)urea], the IC50 was 41 nM at ALPK1 and 2310 nM in assay [1].
The corresponding values for `COc1ccc(C(C)(C)c2csc(NC(=O)NCc3ccc(C4CCNCC4)c(F)c3)n2)cc1` [Example A224, 1-(3-fluoro-4-(piperidin-4-yl)benzyl)-3-(4-(2-(4-methoxyphenyl)propan-2-yl)thiazol-2-yl)urea] are 21 nM and 730 nM.
The corresponding values for `C#C[C@@](C)(c1ccc(Br)cc1)c1csc(NC(=O)NCCO)n1` [Example A160, (S)-1-(4-(2-(4-bromophenyl)but-3-yn-2-yl)thiazol-2-yl)-3-(2-hydroxyethyl)urea] are 10 nM and 170 nM.
The like results for `CNS(=O)(=O)[C@H]1C[C@@H](CNC(=O)Nc2nc(C(C)(C)c3ccc(OC)cc3)cs2)C1` [Example A149, rac-(1s,3s)-3-((3-(4-(2-(4-methoxyphenyl)propan-2-yl)thiazol-2-yl)ureido)methyl)-N-methylcyclobutane-1-sulfonamide] were, in that order, 155 nM and 9400 nM.
For `CNS(=O)(=O)[C@H]1C[C@H](CNC(=O)Nc2nc(C(C)(C)c3ccc(OC)cc3)cs2)C1` [Example A150, rac-(1r,3r)-3-((3-(4-(2-(4-methoxyphenyl)propan-2-yl)thiazol-2-yl)ureido)methyl)-N-methylcyclobutane-1-sulfonamide], the IC50 against ALPK1 is 25 nM; in assay [1] it was 1410 nM.
The corresponding values for `COc1ccc(C(C)(C)c2csc(NC(=O)NCc3ccc(CO)cc3)n2)cc1` [Example A140, 1-(4-(hydroxymethyl)benzyl)-3-(4-(2-(4-methoxyphenyl)propan-2-yl)thiazol-2-yl)urea] are 131 nM and 5520 nM.
The corresponding values for `COc1ccc(C(C)(C)c2csc(NC(=O)NCc3cc(F)c(N4CCNCC4)cc3F)n2)cc1` [Example A231, 1-(2,5-difluoro-4-(piperazin-1-yl)benzyl)-3-(4-(2-(4-methoxyphenyl)propan-2-yl)thiazol-2-yl)urea hydrochloride] are 27 nM and 3360 nM.
